Measured values as given in patent US8685941B2, “Drug composition cytotoxic for pancreatic cancer cells” (University of Central Florida Research Foundation, Inc., priority 2008, dated 2014).
Where two headings read alike, the source gives them in different places.

Tests used:
[1] = system: Stat3; assay: Stat3 DNA-binding activity, EMSA of nuclear extracts, Panc-1; assay type: cell-based, human; settings: for constitutive Stat3 DNA-binding activity: Panc-1, 24 h treatment; for constitutively-active Stat3 DNA-binding activity: first 30 min to 1 h of treatment
Description: (§1) Nuclear Extract Preparation and Gel Shift Assays.
(§2) Nuclear extract preparation and DNA-binding with electrophoretic mobility shift assay (EMSA) were carried out, as previously reported (14, 15). The ^32P-labeled oligonucleotide probes used were hSIE (high affinity sis-inducible element from the c-fos gene, m67 variant), 5′-[…]; (SEQ ID NO:1) that binds Stat1 and Stat3 (Wagner et al., 1990) and the MGFe (mammary gland factor element from the bovine β-casein gene promoter, 5′-[…]; (SEQ ID NO:2) that binds Stat1 and Stat5 (Gouilleux et al., 1995; Seidel et al., 1995).

[2] = system: Panc-1 and Colo-357 cells; assay: Colony survival assay; assay type: cell-based, human; settings: 500 cells per dish, treated once for 48 h
Description: Single-cell suspension of Panc-1 and Colo-357 cells were seeded in 6-cm dishes (500 cells per well) and assayed as previously reported (19), treated the next day with inhibitors for 48 h, and allowed to grow until large colonies were visible. Colonies were stained with crystal violet for 4 h and counted under phase-contrast microscope.

[3] = system: pErk1/pErk2MAPK and pAkt; assay: Immunoblotting for pErk1/pErk2MAPK and pAkt (control studies); assay type: cell-based, human; settings: Panc-1 and Colo-357 cells (data not shown)
Description: (§3) SDS-PAGE/Western Blot Analysis.
(§4) Western blotting analysis was performed as previously described (15, 18). Primary antibodies used were anti-Stat3 (C20) (Santa Cruz, Santa Cruz, Calif.), anti-pY845EGFR (Upstate Biotech, Millipore, Billerica, Mass.), and antibodies against pY705Stat3, Stat3, pY1068EGFR, pY1086EGFR, pY1173EGFR, EGFR, pY416Src, Src, c-Myc, and β-Actin from Cell Signaling (Danvers, Mass.). Inhibitors

[4] = system: Panc-1 or Colo-357 cells; assay: Viable cell count by trypan blue exclusion/phase-contrast microscopy; assay type: cell-based, human
Description: (§5) Cell Proliferation Viability Assay and Annexin V Binding and Flow Cytometry.
(§6) Viable cells were counted by trypan blue exclusion/phase contrast microscopy or assessed by CyQuant cell viability assay, according to manufacturer's (Invitrogen) instructions, or cells were processed for Annexin V binding (BD Biosciences) with flow cytometry for apoptosis.

[5] = system: Colo-357 cells; assay: CyQuant cell proliferation/viability assay, Colo-357; assay type: cell-based; settings: Homo sapiens
Description: as §5, §6

[6] = system: Panc-1 cells; assay: CyQuant cell proliferation/viability assay, Panc-1; assay type: cell-based; settings: Homo sapiens
Description: as §5, §6

[7] = system: Stat3; assay: Stat3 DNA-binding activity, EMSA of nuclear extracts, Colo-357; assay type: cell-based, human
Description: as §1, §2

[8] = system: Panc-1 and Colo-357 cells; assay: CyQuant cell proliferation/viability assay, statements for both lines
Description: as §5, §6

[9] = biological target: T1, Src (Homo sapiens, UniProt P12931); assay: Immunoblotting of whole-cell lysates for pY416Src; assay type: cell-based; settings: immunoblot, 1 h and 24 h treatment or siRNA knockdown
T1 construct: endogenous in cells; host or cells: Panc-1 and Colo-357 human pancreatic cancer cells
Description: as §3, §4
Small-Interfering RNA (siRNA) Transfection.
siRNA sequences for EGFR and Src were ordered from Dharmacon RNAi Technologies, Thermo Scientific (Lafayette, Colo.).

[10] = 1 μM ZD, 100 nM Das, or 50 μM S3I-201 alone, 24 h
[11] = COLO357, inhibitor alone, 48-h treatment, read-out: IC50 against Colo-357 viability
[12] = PANC-1, inhibitor alone, 48-h treatment, read-out: IC50 against Panc-1 viability
[13] = 48-h treatment with each inhibitor alone

T1 sequence (P12931 whole entry): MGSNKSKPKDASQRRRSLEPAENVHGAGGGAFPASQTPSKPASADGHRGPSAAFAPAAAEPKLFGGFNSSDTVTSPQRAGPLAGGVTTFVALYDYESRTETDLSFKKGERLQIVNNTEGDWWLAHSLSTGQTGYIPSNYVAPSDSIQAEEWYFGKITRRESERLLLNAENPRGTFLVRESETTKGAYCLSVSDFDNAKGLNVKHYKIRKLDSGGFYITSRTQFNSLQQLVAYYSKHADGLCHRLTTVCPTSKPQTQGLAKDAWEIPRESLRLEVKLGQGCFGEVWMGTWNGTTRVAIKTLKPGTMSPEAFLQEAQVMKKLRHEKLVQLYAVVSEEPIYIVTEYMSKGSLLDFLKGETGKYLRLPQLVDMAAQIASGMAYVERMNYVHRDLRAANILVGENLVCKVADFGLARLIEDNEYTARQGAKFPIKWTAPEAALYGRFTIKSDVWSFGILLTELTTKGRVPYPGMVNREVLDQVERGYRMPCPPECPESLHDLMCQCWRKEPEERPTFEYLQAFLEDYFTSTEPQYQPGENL

Row | SMILES | constitutive Stat3 DNA-binding activity [1] | constitutively-active Stat3 DNA-binding activity [1] | colony numbers [2] | pErk1/pErk2MAPK and pAkt levels [3] | cell viability (viable cell count) [4, 10] | cell viability (viable cell count) ([4]; treatment for 48 to 96 h) | IC50 [5, 11] [µM] | IC50 [6, 12] [µM] | Stat3 DNA-binding activity [7] | viable cell numbers (fluorescent unit, FU) [8, 13] | other results
1 | N#C/C(=C\c1ccc(O)c(O)c1)C(=O)NCc1ccccc1 [AG490, Tyrphostin AG490] | abolished | no effect | – | – | – | – | – | – | – | – | –
2 | CC(C)(C)c1cc(/C=C(\C#N)C(N)=S)cc(C(C)(C)C)c1O [AG879] | moderately inhibited | early repression | – | – | – | – | – | – | – | – | –
3 | Cc1nc(Nc2ncc(C(=O)Nc3c(C)cccc3Cl)s2)cc(N2CCN(CCO)CC2)n1 [Das, Dasatinib] | rebounded | early repression | reduced colony numbers | neither of which was significantly affected | minimally affected | progressively decreased | 0.09 | 0.1 | inhibited | decreased viable cell numbers | IC50 ([5]; COLO357, read-out: IC50 of Das against Colo-357 viability, concurrent treatment with S3I-201, 48-h treatment): 0.008 µM; IC50 ([6]; PANC-1, read-out: IC50 of Das against Panc-1 viability, concurrent treatment with S3I-201, 48-h treatment): 0.006 µM; sensitivity of both cell lines to S3I-201 ([8]; co-treatment with Das or ZD, 48 h): increased the sensitivity
4 | C=CC(=O)Nc1cc2c(Nc3cccc(Br)c3)ncnc2cc1OCCCN1CCOCC1 [PD169] | rebounded | early repression | – | – | – | – | – | – | – | – | pY416Src level (Src activity) [9]: no detectable changes
5 | Cc1ccc(S(=O)(=O)OCC(=O)Nc2ccc(C(=O)O)c(O)c2)cc1 [S3I-201] | – | – | reduced colony numbers | – | minimally affected | progressively decreased | 45 | 40 | – | – | IC50 ([5]; COLO357, 48 h, read-out: IC50 of S3I-201 on Colo-357 cells): 20 µM; IC50 ([6]; PANC-1, 48 h, read-out: IC50 of S3I-201 on Panc-1 cells): 15 µM; viable cell numbers (fluorescent unit, FU) [8]: decreased viable cell numbers; sensitivity of Panc-1 and Colo-357 cells to ZD and Das ([8]; co-treatment with S3I-201, 48 h): increased the sensitivity
6 | COc1cc2ncnc(Nc3ccc(F)c(Cl)c3)c2cc1OCCCN1CCOCC1 [ZD, Gefitinib] | rebounded | early repression | not EGFR inhibition (by ZD) resulted in reduced colony numbers | neither of which was significantly affected | minimally affected | minimal effect | – | – | inhibited | decreased viable cell numbers | number of viable Panc-1 cells ([4]; ZD, 96 h (Day 4), Panc-1): decreased; cell viability ([8]; 1 μM ZD for 48 h): minimal effect
